# Reference: ChEMBL document CHEMBL1157992, “Alvaradoins A-D. Anthracenone C arabinosides from alvaradoa jamaicensis” (J Nat Prod, 1999)
# Active and inactive are the calls of the source. No cut-off for these calls is given here.
# Tested on: Mycobacterium tuberculosis
# Test: Antituberculosis activity against Mycobacterium tuberculosis at 12.5 ug/mL
# Assay type: functional, organism-based
row,SMILES,Activity
1,COc1cc(O)c2c(c1)C(=O)c1cc(C)cc(O)c1C2=O,inactive
2,Cc1cc(O)c2c(c1)C(=O)c1cccc(O)c1C2=O,inactive
3,COc1cc(O)c2c(c1)[C@@](O)([C@H]1OC[C@H](OC(C)=O)[C@H](OC(=O)C=C(C)C)[C@H]1O)c1cc(C)cc(O)c1C2=O,inactive
4,COc1cc(O)c2c(c1)[C@H]([C@H]1OC[C@H](OC(C)=O)[C@H](OC(=O)C=C(C)C)[C@H]1O)c1cc(C)cc(O)c1C2=O,inactive
5,COc1cc(O)c2c(c1)[C@@H]([C@H]1OC[C@H](OC(C)=O)[C@H](OC(=O)C=C(C)C)[C@H]1O)c1cc(C)cc(O)c1C2=O,inactive
6,COc1cc(O)c2c(c1)[C@](O)([C@H]1OC[C@H](OC(C)=O)[C@H](OC(=O)C=C(C)C)[C@H]1O)c1cc(C)cc(O)c1C2=O,inactive
